#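 Five concentrations, 48 hours, 96-well plates. At the GI50, growth is halved. TGI: concentration producing complete growth inhibition.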
# How the values were obtained:
# Test in all cases: NCI tumour cell line growth inhibition, 48 h
# MOLT-4 leukemia = tested on: MOLT-4 leukemia
# SK-MEL-5 melanoma = tested on: SK-MEL-5 melanoma
# OVCAR-5 ovarian = tested on: OVCAR-5 ovarian
# OVCAR-3 ovarian = tested on: OVCAR-3 ovarian
# A549 NSCLC = tested on: A549 NSCLC
# T-47D breast = tested on: T-47D breast
# SF-539 CNS = tested on: SF-539 CNS
# A498 renal = tested on: A498 renal
# SK-OV-3 ovarian = tested on: SK-OV-3 ovarian
# 786-0 renal = tested on: 786-0 renal
# SNB-75 CNS = tested on: SNB-75 CNS
# DU-145 prostate = tested on: DU-145 prostate
# MCF7 breast = tested on: MCF7 breast
# MDA-MB-435 = tested on: MDA-MB-435
# LOX IMVI melanoma = tested on: LOX IMVI melanoma
# SN12C renal = tested on: SN12C renal
# UACC-62 melanoma = tested on: UACC-62 melanoma
# K-562 leukemia = tested on: K-562 leukemia
# NCI-H23 lung = tested on: NCI-H23 lung
# NCI-H460 lung = tested on: NCI-H460 lung
# HL-60(TB) leukemia = tested on: HL-60(TB) leukemia
# HCT-15 colon = tested on: HCT-15 colon
# BT-549 breast = tested on: BT-549 breast
# KM12 colon = tested on: KM12 colon
# SK-MEL-28 melanoma = tested on: SK-MEL-28 melanoma
# RXF 393 renal = tested on: RXF 393 renal
# HT29 colon = tested on: HT29 colon
# UACC-257 melanoma = tested on: UACC-257 melanoma
# MALME-3M melanoma = tested on: MALME-3M melanoma
# ACHN renal = tested on: ACHN renal
# OVCAR-4 ovarian = tested on: OVCAR-4 ovarian
# EKVX NSCLC = tested on: EKVX NSCLC
# COLO 205 colon = tested on: COLO 205 colon
# HCT-116 colon = tested on: HCT-116 colon
# SW-620 colon = tested on: SW-620 colon
# NCI/ADR-RES ovarian = tested on: NCI/ADR-RES ovarian
# UO-31 renal = tested on: UO-31 renal
# HS 578T breast = tested on: HS 578T breast
# CAKI-1 renal = tested on: CAKI-1 renal
# HOP-62 NSCLC = tested on: HOP-62 NSCLC
# CCRF-CEM leukemia = tested on: CCRF-CEM leukemia
# M14 melanoma = tested on: M14 melanoma
# SF-295 CNS = tested on: SF-295 CNS
# SNB-19 CNS = tested on: SNB-19 CNS
# SF-268 CNS = tested on: SF-268 CNS
# RPMI-8226 leukemia = tested on: RPMI-8226 leukemia
# HOP-92 NSCLC = tested on: HOP-92 NSCLC
# U251 CNS = tested on: U251 CNS
# MDA-MB-231 breast = tested on: MDA-MB-231 breast
# SR leukemia = tested on: SR leukemia
# SK-MEL-2 melanoma = tested on: SK-MEL-2 melanoma
# IGROV1 ovarian = tested on: IGROV1 ovarian
# NCI-H226 lung = tested on: NCI-H226 lung
# NCI-H522 lung = tested on: NCI-H522 lung
# TK-10 renal = tested on: TK-10 renal
# OVCAR-8 ovarian = tested on: OVCAR-8 ovarian
# PC-3 prostate = tested on: PC-3 prostate
structure (smiles),measurement,setting,value
COC1OC(Cc2nnc(C)o2)C(OCc2ccccc2)C(OCc2ccccc2)C1OCc1ccccc1 (stereo not given),TGI,MOLT-4 leukemia,33 µM
same,TGI,SK-MEL-5 melanoma,30 µM
same,TGI,OVCAR-5 ovarian,> 100 µM
same,TGI,OVCAR-3 ovarian,60.6 µM
same,TGI,A549 NSCLC,> 100 µM
same,TGI,T-47D breast,> 100 µM
same,TGI,SF-539 CNS,> 100 µM
same,TGI,A498 renal,> 100 µM
same,TGI,SK-OV-3 ovarian,> 100 µM
same,TGI,786-0 renal,> 100 µM
same,TGI,SNB-75 CNS,> 100 µM
same,TGI,DU-145 prostate,> 100 µM
same,TGI,MCF7 breast,49.7 µM
same,TGI,MDA-MB-435,39.2 µM
same,TGI,LOX IMVI melanoma,40.3 µM
same,TGI,SN12C renal,85.3 µM
same,TGI,UACC-62 melanoma,32.3 µM
same,TGI,K-562 leukemia,98.5 µM
same,TGI,NCI-H23 lung,56 µM
same,TGI,NCI-H460 lung,87 µM
same,TGI,HL-60(TB) leukemia,76.3 µM
same,TGI,HCT-15 colon,> 100 µM
same,TGI,BT-549 breast,83.1 µM
same,TGI,KM12 colon,42.3 µM
same,TGI,SK-MEL-28 melanoma,45.3 µM
same,TGI,RXF 393 renal,48.2 µM
same,TGI,HT29 colon,63.3 µM
same,TGI,UACC-257 melanoma,36.9 µM
same,TGI,MALME-3M melanoma,38.9 µM
same,TGI,ACHN renal,76.8 µM
same,TGI,OVCAR-4 ovarian,> 100 µM
same,TGI,EKVX NSCLC,35.5 µM
same,TGI,COLO 205 colon,44.1 µM
same,TGI,HCT-116 colon,> 100 µM
same,TGI,SW-620 colon,> 100 µM
same,TGI,NCI/ADR-RES ovarian,70 µM
same,TGI,UO-31 renal,> 100 µM
same,TGI,HS 578T breast,> 100 µM
same,TGI,CAKI-1 renal,> 100 µM
same,TGI,HOP-62 NSCLC,> 100 µM
same,TGI,CCRF-CEM leukemia,52.7 µM
same,TGI,M14 melanoma,> 100 µM
same,TGI,SF-295 CNS,52.6 µM
same,TGI,SNB-19 CNS,> 100 µM
same,TGI,SF-268 CNS,46.3 µM
same,TGI,RPMI-8226 leukemia,> 100 µM
same,TGI,HOP-92 NSCLC,> 100 µM
same,TGI,U251 CNS,> 100 µM
same,TGI,MDA-MB-231 breast,> 100 µM
same,TGI,SR leukemia,29.6 µM
same,TGI,SK-MEL-2 melanoma,29.2 µM
same,TGI,IGROV1 ovarian,52.4 µM
same,TGI,NCI-H226 lung,95.6 µM
same,TGI,NCI-H522 lung,52.7 µM
CCN(CC)CCNc1ccc([N+](=O)[O-])c2sc3ccccc3c(=O)c12,GI50,MOLT-4 leukemia,0.386 µM
same,TGI,MOLT-4 leukemia,1.87 µM
same,GI50,SK-MEL-5 melanoma,1.53 µM
same,TGI,SK-MEL-5 melanoma,2.9 µM
same,GI50,OVCAR-5 ovarian,3.47 µM
same,TGI,OVCAR-5 ovarian,15.2 µM
same,GI50,OVCAR-3 ovarian,1.32 µM
same,TGI,OVCAR-3 ovarian,2.69 µM
same,GI50,A549 NSCLC,0.656 µM
same,TGI,A549 NSCLC,2.15 µM
same,GI50,T-47D breast,4.4 µM
same,TGI,T-47D breast,18.9 µM
same,GI50,SF-539 CNS,3.09 µM
same,TGI,SF-539 CNS,10.8 µM
same,GI50,A498 renal,0.591 µM
same,TGI,A498 renal,2.16 µM
same,GI50,SK-OV-3 ovarian,2.08 µM
same,TGI,SK-OV-3 ovarian,6.3 µM
same,GI50,786-0 renal,0.958 µM
same,TGI,786-0 renal,2.35 µM
same,GI50,SNB-75 CNS,1.65 µM
same,TGI,SNB-75 CNS,4.78 µM
same,GI50,DU-145 prostate,0.766 µM
same,TGI,DU-145 prostate,2.05 µM
same,GI50,MCF7 breast,1.27 µM
same,TGI,MCF7 breast,4.74 µM
same,GI50,MDA-MB-435,0.901 µM
same,TGI,MDA-MB-435,2.32 µM
same,GI50,LOX IMVI melanoma,0.421 µM
same,TGI,LOX IMVI melanoma,1.79 µM
same,GI50,SN12C renal,1.07 µM
same,TGI,SN12C renal,11.4 µM
same,GI50,UACC-62 melanoma,2.79 µM
same,TGI,UACC-62 melanoma,16.8 µM
same,GI50,K-562 leukemia,0.582 µM
same,TGI,K-562 leukemia,3.39 µM
same,GI50,NCI-H23 lung,1.23 µM
same,TGI,NCI-H23 lung,2.78 µM
same,GI50,NCI-H460 lung,0.443 µM
same,TGI,NCI-H460 lung,1.96 µM
same,GI50,HL-60(TB) leukemia,0.783 µM
same,TGI,HL-60(TB) leukemia,3.27 µM
same,GI50,HCT-15 colon,1.7 µM
same,TGI,HCT-15 colon,7.59 µM
same,GI50,BT-549 breast,1.74 µM
same,TGI,BT-549 breast,7.8 µM
same,GI50,KM12 colon,1.19 µM
same,TGI,KM12 colon,2.55 µM
same,GI50,SK-MEL-28 melanoma,1.77 µM
same,TGI,SK-MEL-28 melanoma,3.3 µM
same,GI50,RXF 393 renal,1.43 µM
same,TGI,RXF 393 renal,3.03 µM
same,GI50,TK-10 renal,0.624 µM
same,TGI,TK-10 renal,2.24 µM
same,GI50,HT29 colon,0.392 µM
same,TGI,HT29 colon,1.59 µM
same,GI50,UACC-257 melanoma,1.37 µM
same,TGI,UACC-257 melanoma,3.12 µM
same,GI50,MALME-3M melanoma,1.47 µM
same,TGI,MALME-3M melanoma,3.63 µM
same,GI50,ACHN renal,0.646 µM
same,TGI,ACHN renal,4.44 µM
same,GI50,OVCAR-4 ovarian,1.35 µM
same,TGI,OVCAR-4 ovarian,2.81 µM
same,GI50,EKVX NSCLC,0.692 µM
same,TGI,EKVX NSCLC,2.53 µM
same,GI50,COLO 205 colon,1.35 µM
same,TGI,COLO 205 colon,3.58 µM
same,GI50,HCT-116 colon,0.36 µM
same,TGI,HCT-116 colon,1.56 µM
same,GI50,SW-620 colon,0.478 µM
same,TGI,SW-620 colon,1.93 µM
same,GI50,NCI/ADR-RES ovarian,0.586 µM
same,TGI,NCI/ADR-RES ovarian,2.72 µM
same,GI50,UO-31 renal,0.284 µM
same,TGI,UO-31 renal,1.66 µM
same,GI50,HS 578T breast,2.17 µM
same,TGI,HS 578T breast,8.15 µM
same,GI50,HOP-62 NSCLC,1.27 µM
same,TGI,HOP-62 NSCLC,3.64 µM
same,GI50,CCRF-CEM leukemia,0.732 µM
same,TGI,CCRF-CEM leukemia,3.26 µM
same,GI50,M14 melanoma,1.36 µM
same,TGI,M14 melanoma,2.85 µM
same,GI50,SNB-19 CNS,2.22 µM
same,TGI,SNB-19 CNS,13 µM
same,GI50,OVCAR-8 ovarian,0.571 µM
same,TGI,OVCAR-8 ovarian,2.42 µM
same,GI50,SF-268 CNS,1.08 µM
same,TGI,SF-268 CNS,2.5 µM
same,GI50,RPMI-8226 leukemia,0.915 µM
same,TGI,RPMI-8226 leukemia,2.84 µM
same,GI50,HOP-92 NSCLC,1.26 µM
same,TGI,HOP-92 NSCLC,3.36 µM
same,GI50,U251 CNS,0.607 µM
same,TGI,U251 CNS,2.01 µM
same,GI50,PC-3 prostate,1.05 µM
same,TGI,PC-3 prostate,2.47 µM
same,GI50,MDA-MB-231 breast,2.29 µM
same,TGI,MDA-MB-231 breast,9.15 µM
same,GI50,SK-MEL-2 melanoma,1.21 µM
same,TGI,SK-MEL-2 melanoma,5.53 µM
same,GI50,IGROV1 ovarian,0.285 µM
same,TGI,IGROV1 ovarian,1.02 µM
same,GI50,NCI-H226 lung,2.06 µM
same,TGI,NCI-H226 lung,6.6 µM

# From PubChem BioAssay (NCI)
